Earlier results as cited in patent US20020072734A1, “Chip systems for the controlled emission of substances having a chemosensory effect” (PHARMED HOLDING GMBH, priority 2000, published 2002).
Read-outs that look alike come from different tables or passages of the source.

What was measured:
[1] = tested on: regio olfactoria; conditions: mice; applied to the regio olfactoria
[2] = tested on: regio olfactoria; conditions: rats; applied to the regio olfactoria

## CC[C@H](C)[C@@H]1NC(=O)[C@H](Cc2ccc(O)cc2)NC(=O)[C@@H](N)CSSC[C@@H](C(=O)N2CCC[C@H]2C(=O)N[C@@H](CC(C)C)C(=O)NCC(N)=O)NC(=O)[C@H](CC(N)=O)NC(=O)[C@H](CCC(N)=O)NC1=O [oxytocin]
[1]
  rapid effects in the central nervous system (anxiety): relieved anxiety
  rapid effects in the central nervous system (depression, aggression): anti-depressive and anti-aggressive
[2]
  rapid effects in the central nervous system (anxiety): relieved anxiety
  rapid effects in the central nervous system (depression, aggression): anti-depressive and anti-aggressive
